The assay deals with HCT-116 colorectal cancer cells. Briefly: Cell viability (alamarBlue) assay, single agents and combinations, in HCT-116 colorectal cancer cells. As to conditions: Homo sapiens; HCT-116 cells exposed to drug for 72 hr; 1.5-fold serial dilution; four parameter logistic fit; read-out: half maximal inhibitory concentration (IC50), cell viability. The class given is cell-based. The protocol:
Human HCT-116 colorectal cancer cells (CRC) were purchased from the American Type Culture Collection (Manassas, Va.) and grown in McCoy's 5a media (Sigma), following ATCC recommendations, in the presence of fetal bovine serum (10%), 2 mM L-glutamine and antibiotics (100 IU/ml penicillin and 100 μg/ml streptomycin, Sigma). Cells were maintained at 37° C., 5% CO2 atmosphere.
Cell viability was measured using the alamarBlue assay (Invitrogen). In brief, cells were plated in 96-well plates in triplicate at 5K cells per well and incubated at 37° C., 5% CO2 atmosphere for 24 hr prior to the addition of drug or vehicle (0.3% DMSO) to the culture medium. After 72 hr, 10 μl/well alamarBlue was added to the wells and incubated for an additional 3 hr at 37° C., 5% CO2 atmosphere. Fluorescence (560EX/590EM […]) was measured with a SpectraMax microplate reader (Molecular Devices) and the resulting data were used to calculate cell viability, normalized to vehicle control. […]
Combinations between ganetespib and irinotecan were then performed in HCT-116 cells concurrently based on the IC50 for each agent in matrix format with 54 combination pairs for each drug. The combined drugs, as well as each drug alone, were incubated with the cells for 3 days and the surviving fraction of cells relative to control was determined using the alamarBlue assay.
In general terms: The colour change of resazurin is a common sign of viable cells or microbes.

SMILES strings stand for the structures. pIC50: −log10 of the molar value.

Turning to `CCc1c2c(nc3ccc(OC(=O)N4CCC(N5CCCCC5)CC4)cc13)-c1cc3c(c(=O)n1C2)COC(=O)[C@]3(O)CC` [irinotecan], the pIC50 is around 5.64.
For `CC(C)c1cc(-c2nnc(O)n2-c2ccc3c(ccn3C)c2)c(O)cc1O` [ganetespib, 3-(2,4-DIHYDROXY-5- ISOPROPYL-PHENYL)-4-(1- METHYL-INDOL-5-YL)-5- HYDROXY-[1,2,4] TRIAZOLE], the pIC50 is around 7.49.

For the origin of these results see patent US9439899B2, “Cancer therapy using a combination of HSP90 inhibitors with topoisomerase I inhibitors” (Synta Pharmaceuticals Corp., priority 2011, dated 2016).
